# Test results taken from patent publication US20180141911A1, “Quinoline Derivatives for Diagnosis and Treatment of Alzheimer's Disease” (Northeastern University, priority 2015, published 2018).
# Key:
# tau and Aβ aggregates = details: post-mortem AD brain tissues; cited from earlier work
# [1] = normal subjects, nonhuman primates; cited from earlier work
smiles,measurement,setting,value
Oc1c(I)cc(Cl)c2cccnc12 [clioquinol],binding to tau and Aβ aggregates,tau and Aβ aggregates,bind to both tau and Aβ aggregates
"Oc1cccc2ccc([18F])nc12 [[^18F]-CABS13, [^18F]-2-fluoro-8-hydroxyquinoline]",brain penetration,[1],poor brain penetration
same,conversion to a polar metabolite,[1],"rapid, high conversion to a polar metabolite"
Oc1cccc2cccnc12 [8-Hydroxyquinoline],binding to tau and Aβ aggregates,tau and Aβ aggregates,bind to both tau and Aβ aggregates
Brc1cnc2c(OCc3ccccc3)cccc2c1,melting point,,120 °C
